In ChEMBL document CHEMBL1201862, “PubChem BioAssay data set” (2004):
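Method: 48-hour compound exposure of cells in 96-well plates, five concentrations, linear interpolation of endpoints. GI50 marks 50% less growth.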 Activity calls are given as the source filed them. No stated cut-off is given here; in the data, active = GI50 up to about 1.1 µM and inactive = higher. Square brackets hold non-standard residues; d marks the D form. Peptide text beside a SMILES is read from it. * marks the point of attachment. AllylGly = C=CC[CH](N)C(=O)O; Boc = CC(C)(C)OC(=O)*; OtBu = CC(C)(C)O*

Legend:
Experiment in all cases: NCI anticancer screen, dose series, 48 h
PC-3 = test system: PC-3
ACHN = test system: ACHN
M14 = test system: M14
NCI-H522 = test system: NCI-H522
SNB-75 = test system: SNB-75
KM12 = test system: KM12
SW-620 = test system: SW-620
HCC 2998 = test system: HCC 2998
HCT-15 = test system: HCT-15
SK-MEL-2 = test system: SK-MEL-2
IGROV-1 = test system: IGROV-1
HT-29 = test system: HT-29
Hs-578T = test system: Hs-578T
NCI/ADR-RES = test system: NCI/ADR-RES
NCI-H23 = test system: NCI-H23
LOX IMVI = test system: LOX IMVI
T47D = test system: T47D
OVCAR-8 = test system: OVCAR-8
BT-549 = test system: BT-549
CAKI-1 = test system: CAKI-1
A498 = test system: A498
EKVX = test system: EKVX
Malme-3M = test system: Malme-3M
RXF 393 = test system: RXF 393
MDA-N = test system: MDA-N
UACC-62 = test system: UACC-62
786-0 = test system: 786-0
OVCAR-3 = test system: OVCAR-3
SF-539 = test system: SF-539
SNB-19 = test system: SNB-19
MCF7 = test system: MCF7
SF-268 = test system: SF-268
MDA-MB-435 = test system: MDA-MB-435
RPMI-8226 = test system: RPMI-8226
OVCAR-4 = test system: OVCAR-4
A549 = test system: A549
COLO 205 = test system: COLO 205
MDA-MB-231 = test system: MDA-MB-231
MOLT-4 = test system: MOLT-4
K562 = test system: K562
HOP-92 = test system: HOP-92
NCI-H460 = test system: NCI-H460
SN12C = test system: SN12C
UACC-257 = test system: UACC-257
DU-145 = test system: DU-145
SK-MEL-28 = test system: SK-MEL-28
NCI-H226 = test system: NCI-H226
HL-60 = test system: HL-60
U-251 = test system: U-251
TK-10 = test system: TK-10
SF-295 = test system: SF-295
OVCAR-5 = test system: OVCAR-5
SK-MEL-5 = test system: SK-MEL-5
UO-31 = test system: UO-31
CCRF-CEM = test system: CCRF-CEM
HOP-62 = test system: HOP-62
SR = test system: SR
HCT-116 = test system: HCT-116
SK-OV-3 = test system: SK-OV-3
DLD-1 = test system: DLD-1
SNB-78 = test system: SNB-78

Measured: GI50

C=CCC(NC(=O)C(CC(=O)OC(C)(C)C)NC(=O)OC(C)(C)C)C(=O)OC (centres undefined) (Boc-Asp(OtBu)-[AllylGly]-OMe; configuration not given here)
> 100 µM: HCT-15
inactive: PC-3 > 100 µM | ACHN > 100 µM | M14 20.2 µM | NCI-H522 > 100 µM | SNB-75 97.9 µM | KM12 > 55.2 µM | SW-620 56.1 µM | HCC 2998 25.9 µM | SK-MEL-2 73.3 µM | IGROV-1 > 100 µM | HT-29 > 100 µM | Hs-578T > 100 µM | NCI/ADR-RES > 100 µM | NCI-H23 > 94.8 µM | LOX IMVI 20.9 µM | T47D 37.6 µM | OVCAR-8 16 µM | BT-549 > 100 µM | CAKI-1 > 100 µM | A498 > 100 µM | EKVX > 100 µM | Malme-3M 1.84 µM | RXF 393 99.3 µM | MDA-N 31 µM | UACC-62 48.3 µM | 786-0 > 100 µM | OVCAR-3 24.7 µM | SF-539 > 100 µM | SNB-19 > 100 µM | MCF7 55.8 µM | SF-268 51.2 µM | MDA-MB-435 > 53.2 µM | RPMI-8226 32.4 µM | OVCAR-4 > 100 µM | A549 > 100 µM | COLO 205 21.1 µM | MDA-MB-231 > 100 µM | MOLT-4 > 49.9 µM | K562 47.8 µM | HOP-92 > 78.2 µM | NCI-H460 > 100 µM | SN12C > 67 µM | UACC-257 24 µM | DU-145 > 100 µM | SK-MEL-28 47.4 µM | NCI-H226 > 100 µM | HL-60 30.1 µM | U-251 > 42.9 µM | TK-10 > 100 µM | SF-295 > 100 µM | OVCAR-5 > 100 µM | SK-MEL-5 27.6 µM | UO-31 > 100 µM | CCRF-CEM 45.8 µM | HOP-62 > 64.1 µM | SR 37.9 µM | HCT-116 71.1 µM | SK-OV-3 > 100 µM

COc1ccc2c3c(c4cc(OC)c(OC)cc4c2c1)C[C@H]1CCCCN1C3 [CRYPTOPLEURINE]
active: DLD-1 5 nM | HT-29 0.005 µM | LOX IMVI 0.005 µM | OVCAR-8 0.005 µM | SNB-78 5 nM | MCF7 0.005 µM | OVCAR-4 0.005 µM | U-251 0.005 µM | HCT-116 0.005 µM | SK-OV-3 0.005 µM
